Assay results as given in patent publication US10822312B2, “Substituted quinazoline compounds and methods of use” (ARAXES PHARMA LLC, priority 2016, dated 2020).

How the values were obtained:
[1] = target: T1, KRAS WT (GDP-loaded, hexahistidine tagged, truncated 1-169) (Homo sapiens, UniProt P01116); assay: SOS-mediated nucleotide exchange assay, KRAS WT; type: biochemical; conditions: SOS(cat)-mediated Bodipy-GDP exchange
T1 construct: truncated (1-169) KRAS proteins; hexahistidine
Description: (§1) GDP-loaded, hexahistidine tagged, truncated (1-169) KRAS proteins (WT or G12D) were used (stored in protein dilution buffer [20 mM HEPES pH=7.5, 150 NaCl, 1 mM MgCl2]). 1 μL of the respective KRAS protein (1.88 μM stock, 0.125 μM final) was mixed with 10 μL of assay buffer (30 mM TRIS pH=7.5, 1.5 mM MgCl2, 0.135 μM Bodipy-GDP [20 mM TRIS pH=7.5, 1.0 mM MgCl2, 0.09 μM final]) and 1 μL of 15× compound stock in 30% DMSO (final DMSO conc. 2%). After 30 min incubation at room temperature, the exchange reaction was initiated by addition of 3 μL SOS(cat) (catalytic domain, 2.5 μM stock in protein dilution buffer, 0.5 μM final). The assay was carried out in black low-volume plates (Corning #4514) and fluorescence was monitored (485 nm excitation and 510 nm emission) for 45 minutes after initiation at 60-s intervals.
(§2) For data analysis, relative fluorescence values for each sample after subtracting the background values (before SOS addition) were plotted in graph pad. Rates were then calculated by fitting the data by non-linear regression (one phase association curve). Typically, 6 dilutions per compound (3-fold series, starting at 60 μM final) were measured. Calculated rates vs compound concentrations were fitted by non-linear regression (log(inhibitor) vs response-Variable slope (four parameters) fit) to determine IC50 values.
(§3) Compound numbers correspond to the numbers and structures provided in Tables 1, 2 and 3 and Examples 1-4.

[2] = target: T2, KRAS G12D (GDP-loaded, hexahistidine tagged, truncated 1-169) (Homo sapiens, UniProt P01116, G12D); assay: SOS-mediated nucleotide exchange assay, KRAS G12D; type: biochemical; conditions: SOS(cat)-mediated Bodipy-GDP exchange
T2 construct: truncated (1-169) KRAS proteins; hexahistidine
T2 sequence (P01116 1-169 isoform P01116-2 G12D): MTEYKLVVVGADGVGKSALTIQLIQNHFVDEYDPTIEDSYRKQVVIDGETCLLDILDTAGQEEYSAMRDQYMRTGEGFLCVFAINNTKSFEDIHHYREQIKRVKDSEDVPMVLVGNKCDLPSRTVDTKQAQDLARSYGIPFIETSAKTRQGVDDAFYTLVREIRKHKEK
Description: as §1, §2, §3

T1 sequence (P01116 1-169 isoform P01116-2): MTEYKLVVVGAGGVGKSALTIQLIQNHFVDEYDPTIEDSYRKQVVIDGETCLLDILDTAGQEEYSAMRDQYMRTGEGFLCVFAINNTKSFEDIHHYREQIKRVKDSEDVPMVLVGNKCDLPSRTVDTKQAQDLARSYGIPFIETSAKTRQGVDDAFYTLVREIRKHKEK

IC50 [1] [µM] | IC50 [2] [µM] | SMILES
< 15 | > 15 | CN(C)CCCOc1nc(N2CCOCC2)c2cc(Cl)c(-c3cc(O)cc4ccccc34)c(F)c2n1 (atropisomer, axis not shown) [Compound 151]
 | < 15 | CN(C)CCCOc1nc(N2CCNCC2)c2cc(C(F)(F)F)c(-c3cc(O)cc4ccccc34)c(F)c2n1 (atropisomer, axis not shown) [Compound 156]
> 15 |  | CN(C)C1CN(c2nc(N3CCNCC3)c3cc(Cl)c(-c4cc(O)cc5ccccc45)c(F)c3n2)C1 (atropisomer, axis not shown) [Compound 339]
> 15 | < 15 | CN(C)CCCOc1nc(N2CCNCC2)c2cc(Cl)c(-c3cc(O)cc4ccccc34)c(F)c2n1 (single isomer, unassigned) [Compound 22, 4-(6-chloro-2-(3-(dimethylamino)propoxy)-8-fluoro-4-(piperazin-1-yl)quinazolin-7-yl)naphthalen-2-ol]
> 15 | > 15 | CN(C)CC(O)COc1nc(N2CCNCC2)c2cc(Cl)c(-c3cc(O)cc4ccccc34)c(F)c2n1 (centres unmarked) [Compound 120]
> 15 |  | CN(C)CCCOc1nc(N2CCNCC2)c2cc(C(F)(F)F)c(-c3cc(O)cc4ccccc34)c(F)c2n1 [Compound 147]
> 15 | < 15 | CN(C)CCCOc1nc(N2CCN[C@@H](CO)C2)c2cc(Cl)c(-c3cc(O)cc4ccccc34)c(F)c2n1 [Compound 155]
> 15 | < 15 | CC(=O)NCCCCCN(C)CCCOc1nc(N2CCNCC2)c2cc(Cl)c(-c3cc(O)cc4ccccc34)c(F)c2n1 [Compound 172]
 | < 15 | CN(C)C1CN(c2nc(N3CCNCC3)c3cc(Cl)c(-c4cc(O)cc5ccccc45)c(F)c3n2)C1 [Compound 334, 4-(6-Chloro-2-(3-(dimethylamino)azetidin-1-yl)-8-fluoro-4-(piperazin-1-yl)quinazolin-7-yl)naphthalen-2-ol]
> 15 | > 15 | CN(C(=O)CCl)C1CN(c2nc(N3CCNCC3)c3cc(Cl)c(-c4cc(O)cc5ccccc45)c(F)c3n2)C1 [Compound 351]

The remaining lines, values behind:

SMILES | IC50 [1] [µM] | IC50 [2] [µM]
C[C@@H]1CN(c2nc(OCCCN(C)C)nc3c(F)c(-c4cc(O)cc5ccccc45)c(Cl)cc23)[C@@H](C)CN1 (atropisomer, axis not shown) [Compound 97] | > 15 | > 15
CC(=O)N1CCN(c2nc(OCCCN(C)C)nc3c(F)c(-c4cc(O)cc5ccccc45)c(C(F)(F)F)cc23)CC1 (atropisomer, axis not shown) [Compound 158] | < 15 | > 15
CN(C)CCCOc1nc(N2CCOCC2)c2cc(C(F)(F)F)c(-c3cc(O)cc4ccccc34)c(F)c2n1 (atropisomer, axis not shown) [Compound 162] | < 15 | > 15
C[C@@H]1CN(c2nc(N3CC(N(C)C)C3)nc3c(F)c(-c4cc(O)cc5ccccc45)c(Cl)cc23)[C@@H](C)CN1 (atropisomer, axis not shown) [Compound 330] | > 15 | > 15
CC(=O)N1CCN(c2nc(OCCCN(C)C)nc3c(F)c(-c4cc(O)cc5ccccc45)c(Cl)cc23)CC1 (single isomer, unassigned) [Compound 18, 1-(4-(6-chloro-2-(3-(dimethylamino)propoxy)-8-fluoro-7-(3-hydroxynaphthalen-1-yl)quinazolin-4-yl)piperazin-1-yl)ethanone] | < 15 | > 15
Cc1ccc2[nH]ncc2c1-c1c(Cl)cc2c(N3CCNCC3)nc(OCCCN(C)C)nc2c1F [Compound 108] | > 15 | > 15
CN(C)CCCOc1nc(N2CCNCC2)c2cc(Cl)c(-c3c(O)cccc3F)c(F)c2n1 [Compound 112] | > 15 | > 15
CN(C)CCCOc1nc(N2CCN[C@@H](C(N)=O)C2)c2cc(Cl)c(-c3cc(O)cc4ccccc34)c(F)c2n1 [Compound 164] | > 15 | > 15
CN(C)CCCOc1nc(N2CCC(C#N)CC2)c2cc(Cl)c(-c3cc(O)cc4ccccc34)c(F)c2n1 [Compound 165] | > 15 | > 15
CN(C)CCCOc1nc(N2CCN[C@@H](C#N)C2)c2cc(Cl)c(-c3cc(O)cc4ccccc34)c(F)c2n1 [Compound 166] | > 15 | > 15
CN(CCCCCN=[N+]=[N-])CCCOc1nc(N2CCOCC2)c2cc(Cl)c(-c3cc(O)cc4ccccc34)c(F)c2n1 [Compound 167] |  | > 15
CN(CCCCCN=[N+]=[N-])CCCOc1nc(N2CCNCC2)c2cc(Cl)c(-c3cc(O)cc4ccccc34)c(F)c2n1 [Compound 168] |  | > 15
CN(C)CCCOc1nc(N2CCNC(CC(N)=O)C2)c2cc(Cl)c(-c3cc(O)cc4ccccc34)c(F)c2n1 (centres unmarked) [Compound 169] |  | < 15
CN(C)CCCOc1nc(N2CCNC(CC#N)C2)c2cc(Cl)c(-c3cc(O)cc4ccccc34)c(F)c2n1 (centres unmarked) [Compound 170] | < 15 | > 15
CC(=O)NCCCCCN(C)CCCOc1nc(N2CCOCC2)c2cc(Cl)c(-c3cc(O)cc4ccccc34)c(F)c2n1 [Compound 171] | > 15 | > 15
Cc1cc(N)c2[nH]ncc2c1-c1c(Cl)cc2c(N3CCNCC3)nc(OCCCN(C)C)nc2c1F [Compound 173] | > 15 | > 15
Cc1cc(N)c2[nH]ncc2c1-c1c(Cl)cc2c(N3CCOCC3)nc(OCCCN(C)C)nc2c1F [Compound 174] |  | > 15
CN(CCOc1nc(N2CCOCC2)c2cc(Cl)c(-c3cc(O)cc4ccccc34)c(F)c2n1)C(=O)CCl [Compound 175] | > 15 | > 15
O=S(=O)(F)CCOc1nc(N2CCOCC2)c2cc(Cl)c(-c3cc(O)cc4ccccc34)c(F)c2n1 [Compound 176] | > 15 | > 15
CN(C(=O)CN)C1CN(c2nc(N3CCNCC3)c3cc(Cl)c(-c4cc(O)cc5ccccc45)c(F)c3n2)C1 [Compound 344] | > 15 | < 15
CN(C(=O)CO)C1CN(c2nc(N3CCNCC3)c3cc(Cl)c(-c4cc(O)cc5ccccc45)c(F)c3n2)C1 [Compound 346] | > 15 | > 15
CN(C(=O)CCl)C1CN(c2nc(N3CCOCC3)c3cc(Cl)c(-c4cc(O)cc5ccccc45)c(F)c3n2)C1 [Compound 350] | > 15 | > 15
